Values after ≈ are worked out from the molar mass of the structure shown. Where only a bound is given, the exact number is not on record here.

For series [1], the target named is Sphingosine 1-phosphate receptor 1 (Homo sapiens, UniProt P21453). Description: Agonist activity at human S1P1R expressed in RH7777 membranes assessed as [35S]GTPgammaS binding after 30 mins. It is filed as functional, cell membranes. In general terms: GTPγS resists hydrolysis and so accumulates on activated G proteins.
Series [2] concerns the target Sphingosine 1-phosphate receptor 3 (Homo sapiens, UniProt Q99500). As to the kind of experiment: Agonist activity at human S1P3R expressed in RBL membranes assessed as [35S]GTPgammaS binding after 30 mins. The series is classed as functional, cell membranes.
Another series deals with Mus musculus. As to the kind of experiment: Volume of distribution at steady state in po dosed C57BL/6 mouse at 1 mg/kg, iv using DMSO/1% methylcellulose 1:99 (w/v). The series is classed as ADME, organism-based. On the set-up: dose 1 mg/kg, route oral. As to conditions: in vivo.
A short description of series [3]: Half life in po dosed C57BL/6 mouse at 1 mg/kg, iv using DMSO/1% methylcellulose 1:99 (w/v). It is filed as ADME, organism-based. On the set-up: dose 1 mg/kg, route oral. To be noted: in vivo.
The nature of series [4]: Oral bioavailability in C57BL/6 mouse at 3 mg/kg using DMSO/1% methylcellulose 1:99 (w/v). The series is classed as ADME, organism-based. To be noted: in vivo.
In another series the target is T1, Cytochrome P450 1A2 (Homo sapiens, UniProt P05177).
T1 sequence (P05177 whole entry): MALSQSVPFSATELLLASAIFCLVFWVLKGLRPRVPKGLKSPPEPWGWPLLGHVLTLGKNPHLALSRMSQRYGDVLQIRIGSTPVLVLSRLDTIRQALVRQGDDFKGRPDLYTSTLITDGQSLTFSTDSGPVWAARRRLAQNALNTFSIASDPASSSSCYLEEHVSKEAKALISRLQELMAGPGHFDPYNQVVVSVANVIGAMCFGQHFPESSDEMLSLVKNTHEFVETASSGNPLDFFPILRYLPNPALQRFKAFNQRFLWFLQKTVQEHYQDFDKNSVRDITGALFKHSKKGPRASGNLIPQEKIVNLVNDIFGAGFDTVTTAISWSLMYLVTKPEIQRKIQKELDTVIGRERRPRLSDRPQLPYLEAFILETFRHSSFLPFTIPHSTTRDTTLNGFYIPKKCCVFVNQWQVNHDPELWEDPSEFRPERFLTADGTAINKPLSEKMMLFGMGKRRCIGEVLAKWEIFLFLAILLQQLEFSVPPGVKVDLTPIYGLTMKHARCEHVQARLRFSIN
Description: Inhibition of CYP1A2 (unknown origin). It is filed as ADME.

Another series addresses Cytochrome P450 2C9 (Homo sapiens, UniProt P11712). As to the kind of experiment: Inhibition of CYP2C9 (unknown origin). The series is classed as ADME.
A further series has as its target Cytochrome P450 2C19 (Homo sapiens, UniProt P33261). Description: Inhibition of CYP2C19 (unknown origin). The series is classed as ADME.
In the next series the target is Cytochrome P450 2D6 (Homo sapiens, UniProt P10635). Description: Inhibition of CYP2D6 (unknown origin). It is filed as ADME.
The nature of series [5]: Inhibition of CYP3A4VG (unknown origin). It is filed as ADME, Homo sapiens.
Series [6] is described as follows: Inhibition of CYP3A4VR (unknown origin). The series is classed as ADME, Homo sapiens.
Series [7] can be described thus: Fraction unbound in rat blood. The series is classed as ADME, tissue-based.
Series [8] can be described thus: Fraction unbound in dog blood. It is filed as ADME, tissue-based, Canis lupus familiaris.
The nature of series [9]: Fraction unbound in human blood. The series is classed as ADME, tissue-based.
Another series concerns Hepatocyte. As to the kind of experiment: Intrinsic clearance in rat hepatocyte. The series is classed as ADME, cell-based. As to conditions: hepatocytes.
Series [10] can be described thus: Intrinsic clearance in dog hepatocyte. The series is classed as ADME, cell-based, Canis lupus familiaris. To be noted: hepatocytes.
In series [11] the test system is Rattus norvegicus. As to the kind of experiment: Reduction in lymphocyte level in po dosed male Lewis rat. It is filed as functional, organism-based. As to conditions: Rattus norvegicus, Lewis.
Series [12] can be described thus: Clearance in CD rat at 1 mg/kg, iv or 3 mg/kg, po using DMSO/10%(w/v) Kleptose, 0.9% saline(aq) (2%/98%). To be noted: in vivo. It is filed as ADME, organism-based.
The nature of series [13]: Volume of distribution at steady state in CD rat at 1 mg/kg, iv or 3 mg/kg, po using DMSO/10%(w/v) Kleptose, 0.9% saline(aq) (2%/98%). The series is classed as ADME, organism-based. As to conditions: in vivo, read-out: Vdss.
Series [14] is described as follows: Half life in CD rat at 1 mg/kg, iv or 3 mg/kg, po using DMSO/10%(w/v) Kleptose, 0.9% saline(aq) (2%/98%). The series is classed as ADME, organism-based. As to conditions: in vivo.
The nature of series [15]: Oral bioavailability in CD rat at 3 mg/kg using Methylcellulose(aq), 1% (w/v) suspension. It is filed as ADME, organism-based. As to conditions: CD, in vivo.
Series [16] in a line: Volume of distribution at steady state in Beagle dog at 1 mg/kg, iv or 2 mg/kg, po using DMSO/10%(w/v) Kleptose, 0.9% saline(aq) (2%/98%). It is filed as ADME, organism-based, Canis lupus familiaris. To be noted: beagle, in vivo, read-out: Vdss.
In a further series the test system is Canis familiaris. As to the kind of experiment: (§1) Half life in Beagle dog at 1 mg/kg, iv or 2 mg/kg, po using DMSO/10%(w/v) Kleptose, 0.9% saline(aq) (2%/98%). The series is classed as ADME, organism-based, Canis lupus familiaris. As to conditions: in vivo.
Series [17] in a line: Oral bioavailability in Beagle dog at 2 mg/kg using Methylcellulose(aq), 1% (w/v) suspension. The series is classed as ADME, organism-based, Canis lupus familiaris. As to conditions: beagle, in vivo.
Series [18] is described as follows: Dissociation constant, pKa of the compound. The series is classed as physicochemical.
The test system of series [19] is Rattus norvegicus. Description: Reduction of lymphocyte count in rat at 1 mg/kg, po measured at 2 to 12 hrs relative to control. It is filed as functional.
Series [20] can be described thus: Solubility in fed-state simulated intestinal fluid at pH 5 after 24 hrs. The series is classed as ADME.
A short description of series [21]: Solubility in fed-state simulated intestinal fluid at pH 6.5 after 24 hrs. It is filed as ADME.
The nature of series [22]: Permeability in MDCK cells. As to conditions: dog, read-out: permeability. The series is classed as ADME, cell-based, Canis lupus familiaris.
Series [23] can be described thus: Clearance in Beagle dog at 1 mg/kg, iv or 2 mg/kg, po using DMSO/10%(w/v) Kleptose, 0.9% saline(aq) (2%/98%). It is filed as ADME, organism-based, Canis lupus familiaris. To be noted: in vivo.
Series [24] can be described thus: as §1. The series is classed as ADME, organism-based, Canis lupus familiaris. To be noted: beagle, in vivo.
Series [25] in a line: Clearance in cynomolgus monkey at 1 mg/kg, iv or 3 mg/kg, po using DMSO/10%(w/v) Kleptose, 0.9% saline(aq) (2%/98%). As to conditions: in vivo. The series is classed as ADME, organism-based, Macaca fascicularis.
The nature of series [26]: Volume of distribution at steady state in cynomolgus monkey at 1 mg/kg, iv or 3 mg/kg, po using DMSO/10%(w/v) Kleptose, 0.9% saline(aq) (2%/98%). To be noted: in vivo, read-out: Vdss. The series is classed as ADME, organism-based, Macaca fascicularis.
A short description of series [27]: Half life in cynomolgus monkey at 1 mg/kg, iv or 3 mg/kg, po using DMSO/10%(w/v) Kleptose, 0.9% saline(aq) (2%/98%). It is filed as ADME, organism-based, Macaca fascicularis. To be noted: in vivo.
A short description of series [28]: Oral bioavailability in cynomolgus monkey at 3 mg/kg using Methylcellulose(aq), 1% (w/v) suspension. It is filed as ADME, organism-based, Macaca fascicularis. As to conditions: in vivo.
The nature of series [29]: Solubility in simulated gastric fluid. It is filed as ADME.

Sphingosine 1-phosphate receptor 1, sequence (P21453 whole entry): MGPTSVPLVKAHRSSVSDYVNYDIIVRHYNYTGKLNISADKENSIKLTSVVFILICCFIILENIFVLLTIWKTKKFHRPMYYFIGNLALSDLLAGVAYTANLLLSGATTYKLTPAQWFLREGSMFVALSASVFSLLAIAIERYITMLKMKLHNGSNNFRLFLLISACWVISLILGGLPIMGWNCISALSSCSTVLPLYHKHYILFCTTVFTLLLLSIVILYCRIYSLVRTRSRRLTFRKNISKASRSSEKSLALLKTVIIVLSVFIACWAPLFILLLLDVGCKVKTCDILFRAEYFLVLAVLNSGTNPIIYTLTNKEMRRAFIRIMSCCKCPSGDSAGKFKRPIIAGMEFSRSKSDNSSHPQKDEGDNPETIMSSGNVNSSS
Sphingosine 1-phosphate receptor 3, sequence (Q99500 whole entry): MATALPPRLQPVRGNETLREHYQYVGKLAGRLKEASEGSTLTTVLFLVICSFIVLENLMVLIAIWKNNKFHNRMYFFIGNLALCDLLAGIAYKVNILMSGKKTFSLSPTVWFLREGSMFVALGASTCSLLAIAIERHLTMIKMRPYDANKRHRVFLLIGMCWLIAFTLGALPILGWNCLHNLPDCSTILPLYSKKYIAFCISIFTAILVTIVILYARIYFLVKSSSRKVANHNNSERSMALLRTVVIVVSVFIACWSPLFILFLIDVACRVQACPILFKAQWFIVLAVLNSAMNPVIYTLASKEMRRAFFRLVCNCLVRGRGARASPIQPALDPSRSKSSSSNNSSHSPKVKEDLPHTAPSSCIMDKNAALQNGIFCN
Cytochrome P450 2D6, sequence (P10635 whole entry): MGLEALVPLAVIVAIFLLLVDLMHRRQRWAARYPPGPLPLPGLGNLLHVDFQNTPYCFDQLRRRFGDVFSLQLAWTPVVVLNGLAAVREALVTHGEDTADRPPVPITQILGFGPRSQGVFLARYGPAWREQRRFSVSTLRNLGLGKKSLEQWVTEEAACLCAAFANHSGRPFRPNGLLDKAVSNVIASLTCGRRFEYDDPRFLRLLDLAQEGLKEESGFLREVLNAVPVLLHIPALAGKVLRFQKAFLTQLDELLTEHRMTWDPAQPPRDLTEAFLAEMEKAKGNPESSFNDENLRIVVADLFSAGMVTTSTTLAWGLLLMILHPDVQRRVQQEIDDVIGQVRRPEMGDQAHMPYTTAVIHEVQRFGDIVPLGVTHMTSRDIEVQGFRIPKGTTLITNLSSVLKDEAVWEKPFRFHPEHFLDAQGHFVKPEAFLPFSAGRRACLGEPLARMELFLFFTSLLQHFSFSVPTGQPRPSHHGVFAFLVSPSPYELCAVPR
Cytochrome P450 2C19, sequence (P33261 whole entry): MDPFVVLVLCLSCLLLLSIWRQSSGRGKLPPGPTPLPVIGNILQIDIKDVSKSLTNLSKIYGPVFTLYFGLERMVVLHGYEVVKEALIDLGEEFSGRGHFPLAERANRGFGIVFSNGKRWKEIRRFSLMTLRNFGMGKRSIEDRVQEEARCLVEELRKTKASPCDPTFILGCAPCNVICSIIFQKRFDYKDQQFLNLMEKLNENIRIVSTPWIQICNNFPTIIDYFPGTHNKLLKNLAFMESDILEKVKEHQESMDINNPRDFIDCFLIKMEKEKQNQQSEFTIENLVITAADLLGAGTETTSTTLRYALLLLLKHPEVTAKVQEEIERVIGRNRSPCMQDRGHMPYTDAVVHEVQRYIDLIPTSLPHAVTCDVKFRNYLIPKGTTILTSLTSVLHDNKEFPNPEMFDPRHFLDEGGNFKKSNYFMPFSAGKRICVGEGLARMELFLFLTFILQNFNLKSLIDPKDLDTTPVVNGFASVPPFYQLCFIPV
Cytochrome P450 2C9, sequence (P11712 whole entry): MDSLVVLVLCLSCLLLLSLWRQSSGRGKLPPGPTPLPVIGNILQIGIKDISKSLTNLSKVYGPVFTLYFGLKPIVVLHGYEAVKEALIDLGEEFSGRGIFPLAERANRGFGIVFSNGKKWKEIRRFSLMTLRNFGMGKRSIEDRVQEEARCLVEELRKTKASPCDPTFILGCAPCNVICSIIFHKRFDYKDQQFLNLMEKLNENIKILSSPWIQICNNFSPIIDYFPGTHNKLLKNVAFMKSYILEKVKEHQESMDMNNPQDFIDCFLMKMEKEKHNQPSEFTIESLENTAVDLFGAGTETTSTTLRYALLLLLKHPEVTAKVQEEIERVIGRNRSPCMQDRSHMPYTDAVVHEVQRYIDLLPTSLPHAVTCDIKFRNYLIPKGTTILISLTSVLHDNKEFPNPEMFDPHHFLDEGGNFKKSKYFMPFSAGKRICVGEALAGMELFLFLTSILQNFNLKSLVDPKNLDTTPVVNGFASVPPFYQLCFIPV

For `CC(C)Oc1ccc(-c2nc(-c3ccc4c(c3)CCNCC4)no2)cc1Cl`, the EC50 in series [1] was 0.158 µM; in [2], over 31.6 µM. The same compound yielded a Vdss with Mus musculus of 7.6 L/kg. In [3], the half-life was 9.5 h. The same compound registered a bioavailability in series [4] of 59%.
With `CC(C)Oc1ncc(-c2nc(-c3cccc4c3OCCNC4CCCC(=O)O)no2)cc1Cl` (stereo in doubt; 31b), the values for the concentration giving a half-maximal response (EC50) in series [1] and in series [2] were 0.0501 µM and 10 µM, respectively. The IC50 (against Cytochrome P450 1A2; at Cytochrome P450 2C9; at Cytochrome P450 2C19; at Cytochrome P450 2D6; in series [5]; in series [6]) was over 50 µM throughout. Besides, the IC50 in the series with Rattus norvegicus [11] came to 0.099 µM. Further, the results for the free fraction (fraction unbound) in [7], in series [8] and in series [9] were 0.004, 0.015 and 0.016, respectively. Moreover, the CLH in the series on Hepatocyte was under 0.9 mL/min/g; in series [10] it was 1.7 mL/min/g. In series [12], this compound gave a clearance of 0.0426 L/h/kg. For the same compound, the Vd is 0.4 L/kg in series [13] and 0.9 L/kg in series [16]. In addition, in [14], the half-life was 6.6 h. For the same compound, the bioavailability in series [15] was 78%; in series [17] it was 67%. In the series on Canis familiaris, this compound displayed a t1/2 of 1.8 h. Besides, the pKa in series [18] was 8.09. Besides, in the series on Rattus norvegicus [19], the inhibition in vivo at 1 mg/kg is over 80%.
As for `CC(C)Oc1ccc(-c2nc(-c3cccc4c3OCCN(CCCC(=O)O)C4)no2)cc1Cl`, the EC50 in series [1] was 0.0398 µM; in series [2], over 31.6 µM. Besides, the solubility at 24 h in series [20] was 0.03 mg/mL (≈ 63.6 µM); in series [21], 0.32 mg/mL (≈ 678 µM). Moreover, the concentration for half-maximal inhibition (IC50) against Cytochrome P450 1A2 was over 50 µM; against Cytochrome P450 2C9 it was 27 µM; against Cytochrome P450 2C19, over 50 µM; on Cytochrome P450 2D6 it was over 50 µM; in series [5], 40 µM; in [6], 39 µM. The compound further showed a concentration for half-maximal inhibition (IC50) with Rattus norvegicus [11] of 0.127 µM. Further, the Papp in [22] was 155 nm/s. The fraction unbound in [7] came to 0.012; in series [8] it was 0.018; in [9], 0.02. Also, the CLH in the series with Hepatocyte worked out at 1 mL/min/g; in series [10], 8.3 mL/min/g. Besides, the clearance stood at 0.42 L/h/kg in series [12], 1.56 L/h/kg in series [23] and 1.8 L/h/kg in series [25]. In addition, the Vd in series [13] turned out to be 1.2 L/kg; in series [16], 1 L/kg; in series [26], 4 L/kg. Further, the half-life was 3 h in [14], 0.4 h in series [24] and 3.2 h in [27]. The bioavailability in series [15] is 83%; in [17], 57%; in [28], 39%. The same compound gave a solubility in [29] of over 1.32 mg/mL. The pKa in [18] came out at 7.39.

A word on the EC50: it is the concentration that produces a half-maximal response. As usually defined, the half-life is the time in which the quantity being followed falls by half. The bioavailability is the share of a dose that reaches the circulation, judged against a reference dose that is usually intravenous. Usually IC50 stands for the point on the concentration scale where inhibition reaches its midpoint. By fraction unbound is commonly meant free concentration divided by total concentration. For orientation: pKa means the negative logarithm of the acid dissociation constant. As usually defined, the inhibition in vivo is the drop in the measured response relative to a control, in per cent. Broadly, the solubility is how much of the substance goes into solution per volume.
